From the NIST ThermoML archive (doi:10.1016/j.fluid.2005.03.026)

Tests used:
[1] = molar heat capacity at constant pressure; xn = mol fraction of the nth substance listed; conditions: 101.3 kPa, Liquid, Small sample (50 mg) DSC
[2] = molar heat capacity at constant pressure; conditions: 101.3 kPa, Liquid, Small sample (50 mg) DSC

CCCCCCCCCC [decane] + COC(=O)OC
molar heat capacity at constant pressure [J/K/mol], [1]
Conditions | 288.15 K | 298.15 K | 308.15 K
x2 = 0 | 310.09 | 315.04 | 320.03
x2 = 0.0486 | 302.45 | 307.21 | 311.97
x2 = 0.1015 | 294.55 | 298.95 | 303.55
x2 = 0.1491 | 287.67 | 291.87 | 296.24
x2 = 0.198 | 280.61 | 284.73 | 288.82
x2 = 0.3041 | 266.76 | 269.88 | 273.33
x2 = 0.4015 | 255.05 | 256.83 | 259.45
x2 = 0.4497 | 250.05 | 250.5 | 252.64
x2 = 0.5505 | 242.42 | 236.43 | 238.36
x2 = 0.6011 | 237.62 | 229.81 | 230.9
x2 = 0.6454 | 231.62 | 223.97 | –
x2 = 0.6945 | 223.46 | 216.47 | 216.49
x2 = 0.7943 | 202.82 | 198.92 | 199.64
x2 = 0.8464 | – | 189.34 | 190.56
x2 = 0.8975 | 179.17 | 180.34 | 181.8
x2 = 0.949 | 170.97 | 172.02 | 173.51

Cc1ccc(C)cc1 [1,4-dimethylbenzene] + COC(=O)OC
molar heat capacity at constant pressure [J/K/mol], [1]
Conditions | 288.15 K | 298.15 K | 308.15 K
x2 = 0 | 178.86 | 182.56 | 186.15
x2 = 0.04522 | 178.07 | 181.79 | 185.28
x2 = 0.09687 | 177.32 | 180.82 | 184.22
x2 = 0.2003 | 175.72 | 178.96 | 182.14
x2 = 0.3136 | 173.97 | 176.99 | 179.84
x2 = 0.4125 | 172.39 | 175.09 | 177.74
x2 = 0.4946 | 171.06 | 173.56 | 176.04
x2 = 0.5368 | 170.43 | 172.79 | 175.13
x2 = 0.6528 | 168.55 | 170.61 | 172.04
x2 = 0.8445 | 165.6 | 167.14 | 168.84
x2 = 0.9 | 164.89 | 166.25 | 167.79

COC(=O)OC [dimethyl carbonate]
[2]
Conditions | molar heat capacity at constant pressure [J/K/mol]
288.15 K | 163.61
298.15 K | 164.65
308.15 K | 165.92
